Source: article PMC6304418, “A Novel Compound Targeting Protease Receptor 1 Activators for the Treatment of Glioblastoma” (Frontiers in Neurology, 2018)
Where a SMILES comes first, the peptide text is derived from it. The star is where a group is joined. Tos = Cc1ccc(S(=O)(=O)*)cc1; CH2Cl = ClC*

Experiments:
PAR1 = conditions: use limited; ref [34] Gao et al., 2015; cited from earlier work
Source text: Numerous findings support the involvement of the thrombin-PAR1 pathway in glioma pathology ([8], [13], [18]). We have previously found a positive correlation between edema size and PAR1 expression in an animal model of GBM ([19]). […] In addition to the direct thrombin-PAR1 effects on glioma cells, PARs play a crucial role in the control of angiogenesis and vascular permeability by regulating the release of endostatin and vascular endothelial growth fac ...

[1] = test system: thrombin mediated PAR1 activation (pERK/ERK) in CNS-1 cells; assay: ERK activation (pERK/ERK, Western blot) in CNS-1 cells; assay type: cell-based, rat; conditions: thrombin 1 U/ml, 10 min, FCS-free; n = 3; control 1 ± 0.07; p < 0.03 vs. control
Protocol: Cells were seeded (1 × 10^6 cells/75 cm^2 flask) and incubated for 24 h. Then the medium was replaced by FCS-free medium for another 24 h. The cells were treated for 10 min with thrombin (1 U/ml), SIXAC (100 nM), a combination of thrombin and SIXAC or a FCS-free medium which was used as a control (n = 3 for each treatment). The cells were washed and lysed in RIPA buffer (containing in mM: 50 TRIS HCl pH 8, 150 NaCl, 1% NP-40, 0.5% sodium deoxycholate, and 0.1% SDS), a protease inhibitor cocktail (Merck Millipore 539134, 1:100), 0.1 mM sodium orthovanadate and 2 mM PMSF. The cells were scraped, collected and centrifuged (16,000g × 20 min) at 4°C. The supernatants were collected, and protein concentration was determined by means of a bicinchoninic acid (BCA) assay. Each sample (20 μg) was separated by SDS-polyacrylamide gel electrophoresis. The proteins were transferred onto nitrocellulose membranes. Membranes were incubated with mouse anti-phosphorylated Extracellular signal-Regulated Kinase (pERK) antibody (1:10,000, M8159, Sigma), for 1.5 h at room temperature (RT) and washed with Tris-buffered saline and 0.1% Tween 20 (TBST). Membranes were then incubated at RT with horseradish peroxidase-conjugated goat anti-mouse antibody (1:10,000, Jackson Immunoresearch Laboratories). […] Protein bands were detected by a peroxidase-based enhanced chemiluminescence (ECL) method. […]

U87 glioma cells = assay: U87 glioma cell proliferation (XTT); assay type: cell-based, human; conditions: 72 h
Protocol: CNS-1, C6, and U87 rat and human glioma cells were grown in Dulbecco's modified Eagle's medium (DMEM; Bet Haemek, Biological Industries, Israel) supplemented with 10% fetal bovine serum (Bet Haemek, Biological Industries, Israel) and 1% penicillin and streptomycin in a 5% CO2-humidified atmosphere.
Cell proliferation was evaluated using a 2.3-Bis-(2-methoxy-4-nitro-5-sulfophenyl)-2H-tetrazolium-5-carboxyanilide salt (XTT)-based cell proliferation assay kit (Bet Haemek, Biological Industries, Israel). U87 cells were seeded in 96-well plates (5 × 10^3 cells/well) and incubated for 24 h. The medium was then removed, the tested molecules (10^−13-10^−4 M final concentration) were added in FCS-free medium and introduced to the cells for 72 h. After choosing SIXAC as the leading molecule, it was tested in a similar way in CNS-1 cells (SIXAC 1 μM final concentration). XTT solution (50 μl) was added to each well and incubated for 3 h at 37°C. The optical density (OD) of each well was recorded at 450 and 630 nm in a microplate reader (Infinite M200, Tecan, Durham, NC, USA). Cell viability was expressed as the percentage (ODtest–ODblank)/(ODcontrol–ODblank), where ODtest is the optical density of cells exposed to SIXAC treatment, ODcontrol is the optical density of the control sample, and ODblank is the optical density of wells without glioma cells.

## CCOC(=O)N[C@@H]1CC[C@@H]2[C@@H](C1)C[C@H]1C(=O)O[C@H](C)[C@H]1[C@H]2/C=C/c1ccc(-c2cccc(F)c2)cn1 [Vorapaxar]
PAR1
  bleeding side-effects: limited due to bleeding side-effects

## thrombin
[1]
  pERK/ERK ratio, thrombin alone: 2.09 ± 0.28

## Cc1ccc(S(=O)(=O)N[C@@H](CC(=O)O)C(=O)N2CCC[C@H]2C(=O)N[C@@H](CCCNC(=N)N)C(=O)CCl)cc1 [3AACK] (Tos-Asp-Pro-Arg-CH2Cl)
U87 glioma cells; 10^−5M, FCS-free medium, mean ± SEM, 3AACK vs. 6AACK p < 0.035
  U87 proliferation rate ("inhibit proliferation at a rate of"): 0.58 ± 0.046
U87 glioma cells; 10^−8M, p = 0.7
  U87 proliferation inhibition, compared with 6AACK: inhibits more efficiently the proliferation rate when compared to 6AACK at a concentration of 10^−8M, this was found to be non-significant
